According to patent publication US12577255B2, “MDM2-based modulators of proteolysis and associated methods of use” (Arvinas Operations, Inc., priority 2015, dated 2026):

The compounds below were run against T1, bromodomain-containing protein 4 (BRD4) (Homo sapiens, UniProt O60885) (assay: BRD4 Western blot (degradation)). Settings: at 1 μM; VCaP cells, 16 h.
T1 construct: VCaP cells were chased from ATCC and cultured in Dulbecco's Modified Eagle's Medium; host or cells: VCaP
Type: cell-based
Experimental: The following biological assays were performed to evaluate the protein degradation in various cell types using representative compounds disclosed. The degradation of the following proteins were evaluated: bromodomain-containing protein 4 (BRD4), androgen receptor (AR), c-Myc, c-Jun N-terminal kinases (JNK), and enhancer of zeste homolog 2 (EZH2).
VCaP cells were chased from ATCC and cultured in Dulbecco's Modified Eagle's Medium (ATCC), supplemented with 10% FBS (ATCC) and Penicillin/Streptomycin (Life Technologies). DMSO control and compound treatments (0.03 μM to 1 μM) were performed in 12-well plates for 16 h. cells were harvested, and lysed in RIPA buffer (50 mM Tris pH8, 150 mM NaCl, 1% Tx-100, 0.1% SDS, 0.5% sodium deoxycholate) supplemented with protease and phosphatase inhibitors. Lysates were clarified at 16,000 g for 10 minutes, and protein concentration was determined. Equal amount of protein (20 μg) was subjected to SDS-PAGE analysis and followed by immunoblotting according to standard protocols. The antibodies used were BRD4 (Cell signaling #13440), and Actin (Sigma #5441). Detection reagents were Clarity Western ELC substrate (Bio-rad #170-5060).

SMILES | Degradation activity BRD4
Cc1sc2c(c1C)C(c1ccc(Cl)cc1)=N[C@@H](CC(=O)NCCOCCOCCOCCOCCNC(=O)C1N[C@@H](CC(C)(C)C)[C@](C#N)(c3ccc(Cl)cc3F)[C@H]1c1cccc(Cl)c1F)c1nnc(C)n1-2 (stereo partly drawn) [Compound A1307, N-(14-{[3-(3-chloro-2-fluorophenyl)-4-(4-chloro-2-fluorophenyl)-4-cyano-5-(2,2-dimethylpropyl)pyrrolidin-2-yl]formamido}-3,6,9,12-tetraoxatetradecan-1-yl)-2-[(9S)-7-(4-chlorophenyl)-4,5,13-trimethyl-3-thia-1,8,11,12-tetraazatricyclo-[8.3.0.0^2,^6]trideca-2(6),4,7,10,12-pentaen-9-yl]acetamide] | C (larger than 50% degradation at 1 μM)
COc1cc(C(=O)NCCOCCOCCOCCNC(=O)C[C@@H]2N=C(c3ccc(Cl)cc3)c3c(sc(C)c3C)-n3c(C)nnc32)ccc1NC(=O)C1N[C@@H](CC(C)(C)C)[C@](C#N)(c2ccc(Cl)cc2F)[C@H]1c1cccc(Cl)c1F (stereo partly drawn) [Compound A1829, 3-(3-chloro-2-fluorophenyl)-4-(4-chloro-2-fluorophenyl)-N-{4-[(2-{2-[2-(2-{2-[(9S)-7-(4-chlorophenyl)-4,5,13-trimethyl-3-thia-1,8,11,12-tetraazatricyclo[8.3.0.0^2,^6]trideca-2(6),4,7,10,12-pentaen-9-yl]acetamido}ethoxy)ethoxy]ethoxy}ethyl)carbamoyl]-2-methoxyphenyl}-4-cyano-5-(2,2-dimethylpropyl)pyrrolidine-2-carboxamide] | B (25 to 50% degradation at 1 μM)
Cc1sc2c(c1C)C(c1ccc(Cl)cc1)=N[C@@H](CC(=O)NCCOCCOCCOCCOCCOCCNC(=O)C1NC(CC(C)(C)C)C(C#N)(c3ccc(Cl)cc3F)C1c1cccc(Cl)c1F)c1nnc(C)n1-2 (stereo partly drawn) [Compound A1283, N-(17-{[3-(3-chloro-2-fluorophenyl)-4-(4-chloro-2-fluorophenyl)-4-cyano-5-(2,2-dimethylpropyl)pyrrolidin-2-yl]formamido}-3,6,9,12,15-pentaoxaheptadecan-1-yl)-2-[(9S)-7-(4-chlorophenyl)-4,5,13-trimethyl-3-thia-1,8,11,12-tetraazatricyclo-[8.3.0.0^2,^6]trideea-2(6),4,7,10,12-pentaen-9-yl]acetamide] | B (25 to 50% degradation at 1 μM)
Cc1sc2c(c1C)C(c1ccc(Cl)cc1)=N[C@@H](CC(=O)NCCOCCOCCOCCNC(=O)C1N[C@@H](CC(C)(C)C)[C@](C#N)(c3ccc(Cl)cc3F)[C@H]1c1cccc(Cl)c1F)c1nnc(C)n1-2 (stereo partly drawn) [Compound A1306, N-(2-{2-[2-(2-{[3-(3-chloro-2-fluorophenyl)-4-(4-chloro-2-fluorophenyl)-4-cyano-5-(2,2-dimethylpropyl)pyrrolidin-2-yl]formamido}ethoxy)ethoxy]ethoxy}ethyl)-2-[(9S)-7-(4-chlorophenyl)-4,5,13-trimethyl-3-thia-1,8,11,12-tetraazatricyclo[8.3.0.0^2,^6]trideca-2(6),4,7,10,12-pentaen-9-yl]acetamide] | B (25 to 50% degradation at 1 μM)

Continued, values first:

Degradation activity BRD4 | SMILES
A (0 to 25% degradation at 1 μM) | COc1cc(C(=O)NCCOCCOCCOCCNC(=O)C[C@@H]2N=C(c3ccc(Cl)cc3)c3c(sc(C)c3C)-n3c(C)nnc32)ccc1NC(=O)[C@H]1N[C@H](CC(C)(C)C)[C@@](C#N)(c2ccc(Cl)cc2F)[C@@H]1c1cccc(Cl)c1F [Compound A1875, (2S,3R,4S,5R)-3-(3-chloro-2-fluorophenyl)-4-(4-chloro-2-fluorophenyl)-N-{4-[(2-{2-[2-(2-{2-[(9S)-7-(4-chlorophenyl)-4,5,13-trimethyl-3-thia-1,8,11,12-tetraazatricyclo[8.3.0.0^2,^6]trideca-2(6),4,7,10,12-pentaen-9-yl]acetamido}ethoxy)ethoxy]ethoxy}ethyl)carbamoyl]-2-methoxyphenyl}-4-cyano-5-(2,2-dimethylpropyl)pyrrolidine-2-carboxamide]
B (25 to 50% degradation at 1 μM) | COc1cc(C(=O)NCCOCCOCCOCCNC(=O)C[C@@H]2N=C(c3ccc(Cl)cc3)c3c(sc(C)c3C)-n3c(C)nnc32)ccc1NC(=O)[C@@H]1N[C@@H](CC(C)(C)C)[C@](C#N)(c2ccc(Cl)cc2F)[C@H]1c1cccc(Cl)c1F [Compound A1874, (2R,3S,4R,5S)-3-(3-chloro-2-fluorophenyl)-4-(4-chloro-2-fluorophenyl)-N-{4-[(2-{2-[2-(2-{2-[(9S)-7-(4-chlorophenyl)-4,5,13-trimethyl-3-thia-1,8,11,12-tetraazatricyclo[8.3.0.0^2,^6]trideca-2(6),4,7,10,12-pentaen-9-yl]acetamido}ethoxy)ethoxy]ethoxy}ethyl)carbamoyl]-2-methoxyphenyl}-4-cyano-5-(2,2-dimethylpropyl)pyrrolidine-2-carboxamide]
C (larger than 50% degradation at 1 μM) | COc1cc(C(=O)NCCOCCOCCOCCOCCNC(=O)C[C@@H]2N=C(c3ccc(Cl)cc3)c3c(sc(C)c3C)-n3c(C)nnc32)ccc1NC(=O)C1N[C@@H](CC(C)(C)C)[C@](C#N)(c2ccc(Cl)cc2F)[C@H]1c1cccc(Cl)c1F (stereo partly drawn) [Compound A1876, 3-(3-chloro-2-fluorophenyl)-4-(4-chloro-2-fluorophenyl)-N-{4-[(14-{2-[(9S)-7-(4-chlorophenyl)-4,5,13-trimethyl-3-thia-1,8,11,12-tetraazatricyclo[8.3.0.0^2,^6]-trideca-2(6),4,7,10,12-pentaen-9-yl]acetamido}-3,6,9,12-tetraoxatetradecan-1-yl)carbamoyl]-2-methoxyphenyl}-4-cyano-5-(2,2-dimethylpropyl)pyrrolidine-2-carboxamide]
B (25 to 50% degradation at 1 μM) | COc1cc(C(=O)NCCOCCOCCNC(=O)C[C@@H]2N=C(c3ccc(Cl)cc3)c3c(sc(C)c3C)-n3c(C)nnc32)ccc1NC(=O)C1N[C@@H](CC(C)(C)C)[C@](C#N)(c2ccc(Cl)cc2F)[C@H]1c1cccc(Cl)c1F (stereo partly drawn) [Compound A1863, 3-(3-chloro-2-fluorophenyl)-4-(4-chloro-2-fluorophenyl)-N-[4-({2-[2-(2-{2-[(9S)-7-(4-chlorophenyl)-4,5,13-trimethyl-3-thia-1,8,11,12-tetraazatricyclo-[8.3.0.0^2,^6]trideca-2(6),4,7,10,12-pentaen-9-yl]acetamido}ethoxy)ethoxy]-ethyl}carbamoyl)-2-methoxyphenyl]-4-cyano-5-(2,2-dimethylpropyl)pyrrolidine-2-carboxamide]
C (larger than 50% degradation at 1 μM) | COc1cc(C(=O)NCCOCCNC(=O)C[C@@H]2N=C(c3ccc(Cl)cc3)c3c(sc(C)c3C)-n3c(C)nnc32)ccc1NC(=O)C1N[C@@H](CC(C)(C)C)[C@](C#N)(c2ccc(Cl)cc2F)[C@H]1c1cccc(Cl)c1F (stereo partly drawn) [Compound A1890, 3-(3-chloro-2-fluorophenyl)-4-(4-chloro-2-fluorophenyl)-N-(4-{[2-(2-{2-[(9S)-7-(4-chlorophenyl)-4,5,13-trimethyl-3-thia-1,8,11,12-tetraazatricyclo[8.3.0.0^2,^6]-trideca-2(6),4,7,10,12-pentaen-9-yl]acetamido}ethoxy)ethyl]carbamoyl}-2-methoxyphenyl)-4-cyano-5-(2,2-dimethylpropyl)pyrrolidine-2-carboxamide]
A (0 to 25% degradation at 1 μM) | COc1cc(C(=O)NCCOCCOCCNC(=O)C[C@@H]2N=C(c3ccc(Cl)cc3)c3c(sc(C)c3C)-n3c(C)nnc32)ccc1NC(=O)[C@H]1N[C@H](CC(C)(C)C)[C@@](C#N)(c2ccc(Cl)cc2F)[C@@H]1c1cccc(Cl)c1F [Compound A1865, (2S,3R,4S,5R)-3-(3-chloro-2-fluorophenyl)-4-(4-chloro-2-fluorophenyl)-N-[4-({2-[2-(2-{2-[(9S)-7-(4-chlorophenyl)-4,5,13-trimethyl-3-thia-1,8,11,12-tetraazatricyclo-[8.3.0.0^2,^6]trideca-2(6),4,7,10,12-pentaen-9-yl]acetamido}ethoxy)ethoxy]ethyl}-carbamoyl)-2-methoxyphenyl]-4-cyano-5-(2,2-dimethylpropyl)pyrrolidine-2-carboxamide]

What follows are compounds tested on p53 (assay: Western blot of HCT116 cells, p53 level). Settings: Western blot (FIG. 2, FIG. 3).
Type: cell-based, human

SMILES | p53 level increase
COc1cc(C(=O)NCCOCCOCCOCC(=O)N[C@H](C(=O)N2C[C@H](O)C[C@H]2C(=O)NCc2ccc(-c3scnc3C)cc2)C(C)(C)C)ccc1NC(=O)[C@@H]1N[C@@H](CC(C)(C)C)[C@](C#N)(c2ccc(Cl)cc2F)[C@H]1c1cccc(Cl)c1F [Compound A1910, (2R,3S,4R,5S)-3-(3-chloro-2-fluorophenyl)-4-(4-chloro-2-fluorophenyl)-4-cyano-5-(2,2-dimethylpropyl)-N-{4-[(2-{2-[2-({[(2S)-1-[(2S,4R)-4-hydroxy-2-({[4-(4-methyl-1,3-thiazol-5-yl)phenyl]methyl}-carbamoyl)pyrrolidin-1-yl]-3,3-dimethyl-1-oxobutan-2-yl]carbamoyl}methoxy)-ethoxy]ethoxy}ethyl)carbamoyl]-2-methoxyphenyl}pyrrolidine-2-carboxamide] | dose dependent p53 level increase
COc1cc(C(=O)NCCOCCOCC(=O)N[C@H](C(=O)N2C[C@H](O)C[C@H]2C(=O)NCc2ccc(-c3scnc3C)cc2)C(C)(C)C)ccc1NC(=O)[C@@H]1N[C@@H](CC(C)(C)C)[C@](C#N)(c2ccc(Cl)cc2F)[C@H]1c1cccc(Cl)c1F [Compound A1907] | dose dependent p53 level increase
